In PubChem BioAssay AID624265 (Broad Institute, 2012):
Where “and” joins values, the source holds several entries; their conditions need not be identical. Equal values may be shown once. Calls of active or inactive are those of the source.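 How the source made its calls: active means at a dose no more than twice the top valid tested dose, the fitted curve drops below -35% activity change; inactive means the rest, rising-direction activity included.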

Assays:
[1] = system: NIH3T3 viability, CellTiter-Glo ATP luminescence; experiment: cytotoxicity in NIH3T3 fibroblasts, dose response, cytotoxicity control for HSP40 inhibitor project, cell-based, CellTiter-Glo luminescence, cherry-pick, set 2 (AID 624265);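 further: cells exposed to compound for 48 hours before the ATP read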;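 on activity change, negative = toxicity: 0% = median neutral control signal and -100% = no luminescence left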
[2] = as above; conditions: NIH3T3 viability, CellTiter-Glo ATP luminescence

Row | SMILES | AC35 [1] | activity change, negative = toxicity ([2]; at 50 µM (top of the series)) | other results
1 | COc1ccc(O)c(C(=O)CC(=O)c2ccc(F)cc2)c1 | 52.3 µM |  | 
2 | Oc1cccc2ccc(Nc3ccccn3)nc12 | 14.2 µM |  | 
3 | CCC(=O)NC(c1ccco1)c1cc(Cl)c2cccnc2c1O (stereo unspecified) | 49.1 µM |  | 
4 | CCCCCCCCCCOC(=O)Cn1c(COc2ccccc2OC)[n+](C)c2ccccc21 | 26.7 µM |  | 
5 | CC[n+]1c(/C=C/C=C/c2ccc(N(C)C)cc2)sc2ccccc21 | 24.4 µM |  | 
6 | O=C1c2cc(F)ccc2-n2c1nc1ccccc1c2=O | 50 µM |  | 
7 | COc1cccc(/C=N/Nc2ncnc3scc(-c4ccccc4)c23)c1O | 48.4 µM |  | 
8 | Cc1c(Cc2ccccc2)c(NCCN(C)C)n2c(nc3ccccc32)c1C#N | 16.3 µM |  | 
9 | CCCCOC(=O)/C=C/c1ccc(OC(=O)OC)c(OC(=O)OC)c1 | 50.7 µM |  | 
10 | O=C(Nc1nc(-c2ccccn2)cs1)c1ccc(Br)s1 | 27.1 µM |  | 
11 | CCCCNc1c(-c2cccc(Sc3ccc(OC)cc3)c2)nc2ccccn12 | 39.2 µM |  | 
12 | CC(C)N1CCN(c2ccc(OCC3COC(Cn4cncn4)(c4ccc(Cl)cc4Cl)O3)cc2)CC1 (stereo unspecified) | 12.4 µM |  | 
13 | C=C1C(=O)C23CCC4C(C)(C(=O)OC)CCCC4(C)C2CCC1(O)C3 (stereo unspecified) | 10.1 µM |  | 
14 | CC1CCN(c2nc(-c3ccncc3)nc3ccccc23)CC1 | 49.6 µM |  | 
15 | COc1cccc(/C=N/Nc2ncnc(Cl)c2N)c1O | 47.2 µM |  | 
16 | Cc1ccc(Cl)cc1NC1=C/C(=N\S(=O)(=O)c2cccs2)c2ccccc2C1=O | 8.07 µM |  | 
17 | CC(=O)C1=C(c2ccc(Br)cc2)C(=O)c2ccccc2C1=O | 26.2 µM |  | 
18 | CN(C)c1nc(-c2ccccn2)nnc1-c1ccccc1 | 43.5 µM |  | 
19 | Cc1ccc(S(=O)(=O)Nc2ccc(O)c3cccnc23)cc1 | 33 µM |  | 
20 | O=CC1=C(c2ccccc2)Oc2ccccc2O1 | 47.5 µM |  | 
21 | CCc1cc(SC#N)cc(C)c1NC(=O)CCl | 49.6 µM |  | 
22 | CC(=O)Oc1ccc(OC(C)=O)c(SCCCCCCl)c1 | 42.6 µM |  | 

Row | SMILES | AC35 [1] | activity change, negative = toxicity ([2]; at 50 µM (top of the series)) | other results
23 | CNc1ccc2oc(C[C@H]3O[C@@]4(CC[C@H]3C)O[C@H]([C@H](C)C(=O)c3ccc[nH]3)[C@H](C)C[C@H]4C)nc2c1C(=O)O | 11.1 µM |  | 
24 | Cc1cccc2sc(NNC(=O)c3ccc(S(=O)(=O)N4CCCC(C)C4)cc3)nc12 (stereo unspecified) | 40.5 µM |  | 
25 | Oc1ccc(/C=N/Nc2ccc(C(F)(F)F)cn2)c(O)c1 | 43.9 µM |  | 
26 | CC(C)N1CCN(c2ccc(OC[C@H]3CO[C@](Cn4cncn4)(c4ccc(Cl)cc4Cl)O3)cc2)CC1 | 30.8 µM |  | 
27 | CN(Cc1ccc(Cl)s1)C(=O)CCl | 25 µM |  | 
28 | Oc1c(C(Nc2cccc(C(F)(F)F)c2)c2ccncc2)ccc2cccnc12 (stereo unspecified) | 48.9 µM |  | 
29 | O=[N+]([O-])c1ccc(Sc2cccc[n+]2[O-])c2nonc12 | 4.46 µM |  | 
30 | Cc1[nH]n(-c2ccccc2)c(=O)c1/C=N/Nc1nncc(-c2ccccc2)n1 | 19.5 µM |  | 
31 | O=C(Nc1cc(Oc2ccc(Cl)cc2)cc([N+](=O)[O-])c1)c1ccco1 |  | -2.9% (inactive) | 
32 | O=C(CSc1ccc(-c2ccccn2)nn1)NCc1ccc(F)cc1 |  | -2.59% (inactive) | 
33 | CN(C)c1nc(SCc2ccc(Cl)cc2)nc2c1CCCC2 |  | 9.05% (inactive) | 
34 | C=CCn1c(-c2cc(-c3ccc(C)cc3)nc3ccccc23)n[nH]c1=S |  | 15.5% (inactive) | 
35 | Cn1nc(C(F)(F)F)c(C#N)c1N1CCN(c2ccc(F)cc2)CC1 |  | 21.3% (inactive) | 
36 | O=c1c2ccccc2nc(-c2cccc(Cl)c2)n1O |  | 4.83% (inactive) | 
37 | CCCCCCn1c(=O)c(C(=O)Nc2ncccc2C)c(O)c2ccccc21 |  | 6.84% (inactive) | 
38 | Cc1cccc(NC(=S)NC(C)CCc2ccccc2)c1 (stereo unspecified) |  | 12.9% (inactive) | 
39 | Nc1nc2sc3c(c2c(=O)s1)CCCC3 |  | 13.7% (inactive) | 
40 | O/N=C/c1ccccc1OCc1ccc(Cl)cc1 |  | 18.4% (inactive) | 
41 | O=C(NCCC1=CCCCC1)c1c(O)nc2sccn2c1=O |  | 15.1% (inactive) | 
42 | CC(C)C(=O)NC(c1ccco1)c1ccc2cccnc2c1O (stereo unspecified) |  |  | activity change, negative = toxicity ([2]; at 16 µM (top of the series)): -30% (inactive)
43 | O=C(O)c1ccccc1NC(c1ccccc1)c1ccc2cccnc2c1O (stereo unspecified) |  | -15.4% (inactive) | 
44 | COc1cccc(/C=N/NC(=O)c2nc(-c3ccccc3)cc(-c3ccccc3)n2)c1O |  | -8.68% (inactive) | 

Row | SMILES | AC35 [1] | activity change, negative = toxicity ([2]; at 50 µM (top of the series)) | other results
45 | O=[N+]([O-])c1cc(C(F)(F)F)ccc1NCCc1c[nH]c2ccc(O)cc12 |  | -9.08% (inactive) | 
46 | COc1cccc(CC(=O)Nc2ccc3nc(C)sc3c2)c1 |  | 14.6% (inactive) | 
47 | O/N=C(\c1ccc(Cl)cc1)c1cc2ccccc2o1 |  | -9.72% (inactive) | 
48 | Nc1cc2nc3ccccc3oc-2cc1=O | 28 µM |  | 
49 | Cn1ccc(=Nc2ccc(NC(=O)c3ccc(N=c4ccn(C)c5ccc([N+](=O)[O-])cc45)cc3)cc2)cc1 |  | 1.51% (inactive) | 
50 | Clc1ccc(C2=NCCN2)cc1 |  | 6.22% (inactive) | 
51 | OCCN(CCO)c1cc2c3ccccc3ccc2c2ccccc12 |  | -14.3% (inactive) | 
52 | CC1=CC(=O)C=C(C)C1=NOS(=O)(=O)c1ccccc1 | 27.6 µM |  | 
53 | COc1ccc(C(=O)On2c(-c3ccc(Br)cc3)nc3ccccc3c2=O)cc1 |  | 8% (inactive) | 
54 | O=C(/C(=N/N=C/c1ccc(O)c(O)c1O)c1ccccc1)c1ccccc1 |  | -5.73% (inactive) | 
55 | Cc1ccc(O)c(C2=NNC(c3ccc(Cl)cc3)C2)c1 (stereo unspecified) |  | 0.122% (inactive) | 
56 | O=c1cc(CSc2ccc(Cl)cc2)nc(-c2ccccn2)[nH]1 |  | 20.7% (inactive) | 
57 | CCCCc1ccc(-n2c(Cc3cccs3)n[nH]c2=S)cc1 |  | -7.72% (inactive) | 
58 | O/N=C(\c1ccc(Cl)cc1Cl)c1ncc(C(F)(F)F)cc1Cl |  | -0.787% (inactive) | 
59 | c1ccc(-c2ccc(SCc3cccnc3)nn2)nc1 |  | -5.74% (inactive) | 
60 | CC12CCC(O)CC1=CCC1C2CCC2(C)C3=NN=CC3CC12 (stereo unspecified) |  | 6.4% (inactive) | 
61 | CCc1ccc(OCc2n[nH]c(=S)n2Cc2ccccc2)cc1 |  | 3.81% (inactive) | 
62 | O=C(c1ccccc1)N1C(=O)C(c2ccccc2)Oc2ccccc21 (stereo unspecified) |  | 5.11% (inactive) | 
63 | O=c1c(CO)cc(CO)cc(CO)c1O |  | -3.78% (inactive) | 
64 | O=c1c2ccccc2nc(-c2ccc(-c3ccccc3)cc2)n1-c1ccncc1 |  | 4% (inactive) | 
65 | O=P(Nc1cccnc1)(Oc1ccccc1Cl)Oc1ccccc1Cl |  | -1.87% (inactive) | 
66 | CCN(CC)c1ccc(/C=N/NC(=O)c2c(Cl)cnn2C)c(O)c1 |  | -24.5% (inactive) | 

Row | SMILES | AC35 [1] | activity change, negative = toxicity ([2]; at 50 µM (top of the series)) | other results
67 | Cc1c(C2(O)CCCCC2)[nH]c2ccc(C(F)(F)F)cc12 |  | -6.56% (inactive) | 
68 | Cc1ccc(C(=O)C(SC(C)(C)C)n2cncn2)cc1 (stereo unspecified) |  | 10.4% (inactive) | 
69 | CN(C)c1ccc(C=c2c3ccccc3n3c2c2c([n+]3C)CCCC2)cc1 | 33.3 µM |  | 
70 | COc1cnc(-c2ccccn2)nc1Oc1ccc(C(C)(C)C)cc1 |  | 23.5% (inactive) | 
71 | COc1cnc(-c2ccccn2)nc1Sc1ccccc1 |  | 9.22% (inactive) | 
72 | CCCCNc1c(-c2cccc(-c3ccc(OC)cc3)c2)nc2ccc(C)cn12 | 22.7 µM |  | 
73 | O=C1OCC(CO)(CO)N=C1NNc1ccc(Cl)c(Cl)c1 |  | 2.06% (inactive) | 
74 | O=C(c1ccc(Cl)cc1)N1CCN(c2ccc(F)cc2)CC1 |  | 5.81% (inactive) | 
75 | Clc1ccc(COC(Cn2ccnc2)c2ccc(Cl)cc2Cl)c(Cl)c1 (stereo unspecified) |  | 5.58% (inactive) and 0.687% (inactive) | 
76 | Oc1ccc(N=Nc2ccc3c(c2)OCCO3)c2cccnc12 | 50.2 µM |  | 
77 | CC1(C)C=Cc2c(ccc3c2OC[C@@H](c2ccc(O)cc2O)C3)O1 |  | 16.2% (inactive) | 
78 | O=C(Nc1nnc(-c2cccs2)o1)c1cccc(Oc2ccccc2)c1 |  | -7.72% (inactive) | 
79 | CCOC(=O)c1cc2c(=Cc3ccc(N(C)C)cc3)c3ccccc3n2[n+]1C | 29 µM |  | 
80 | CCCS(=O)(=O)c1c(S(=O)(=O)CCC)c2c(C)cccn2c1C(=O)N/N=C/c1cc(O)cc(O)c1 |  | -15.8% (inactive) | 
81 | O=Cc1cc(N=Nc2ccccc2Cl)ccc1O |  | -3.57% (inactive) | 
82 | O=C(c1ccc(-c2ccccc2)cc1)C1CCCN(C(=O)c2cncs2)C1 (stereo unspecified) |  | -8.68% (inactive) | 
83 | CC1=CC(C)(C)N(S(=O)(=O)c2ccc(C)cc2)c2ccc(C)cc21 |  | 9.86% (inactive) | 
84 | CC(NC(=S)NC1CCC(C(C)(C)C)CC1)c1ccccc1 (stereo unspecified) |  | 3.27% (inactive) | 
85 | Cc1oc2c(c1C(=O)c1ccccc1)C(=O)C(=O)c1ccccc1-2 | 8.43 µM |  | 
86 | Cc1nc(-c2ccccn2)nc(N(C)c2ccccc2)c1Cl |  | 9.36% (inactive) | 
